“And” between values parts separate entries of the source, which are not always exact repeats. Identical values can stand only once.
Tested on: cellular gene expression in HeLa rtTA HIV∆Mls cells
Settings: 9147791-treated cells, two replicates

With `Cc1cc(NCc2cccnc2)n2ncc(-c3ccc(Cl)cc3)c2n1` [Compound 791, 3-(4-chlorophenyl)-5-methyl-N-(3-pyridinylmethyl)pyrazolo[1,5-a]pyrimidin-7-amine] the ACER2 expression level (gene ACER2) was 0.80 and 0.82, the ADO expression level (gene ADO) was 10.11 and 9.67 and the AKIRIN2 expression level (gene AKIRIN2) was 37.74 and 36.76. The ALG5 expression level (gene ALG5) was 17.63 and 17.19, the ALKBH8 expression level (gene ALKBH8) was 2.78 and 2.65 and the ANKRD40 expression level (gene ANKRD40) was 18.60 and 17.61. The ANKRD50 expression level (gene ANKRD50) was 8.61 and 9.09, the AP3S2 expression level (gene AP3S2) was 6.99 and 6.84 and the ARL4D expression level (gene ARL4D) was 11.90 and 11.09. The ARMC10 expression level (gene ARMC10) was 25.33 and 26.90, the ARSJ expression level (gene ARSJ) was 5.86 and 6.05 and the ATG4B expression level (gene ATG4B) was 24.43 and 25.27. The ATP6V1B2 expression level (gene ATP6V1B2) was 44.15 and 44.20, the AUP1 expression level (gene AUP1) was 93.65 and 90.36 and the AVL9 expression level (gene AVL9) was 14.40 and 14.91. The AXIN1 expression level (gene AXIN1) was 20.61 and 19.36, the B4GALT5 expression level (gene B4GALT5) was 32.71 and 30.46 and the BCL7A expression level (gene BCL7A) was 4.81 and 5.05. The BICD1 expression level (gene BICD1) was 5.82 and 5.80, the BIVM expression level (gene BIVM) was 26.38 and 27.51 and the BMP2K expression level (gene BMP2K) was 8.20 and 7.95. The C1orf27 expression level (gene C1orf27) was 10.72 and 10.90, the C1orf103 expression level (gene C1orf103) was 11.43 and 11.72 and the C1orf131 expression level (gene C1orf131) was 8.80 and 9.06. For the same compound, the C2orf49 expression level (gene C2orf49) was 7.96 and 8.04, the C3orf19 expression level (gene C3orf19) was 6.85 and 6.46 and the C4orf27 expression level (gene C4orf27) was 19.50 and 20.20. For the same compound, the C5orf37 expression level (gene C5orf37) was 8.35 and 8.03, the C5orf45 expression level (gene C5orf45) was 14.96 and 13.97 and the C5orf51 expression level (gene C5orf51) was 28.44 and 30.27. For the same compound, the C7orf23 expression level (gene C7orf23) was 28.60 and 29.63, the C7orf25 expression level (gene C7orf25) was 13.24 and 13.90 and the C9orf6 expression level (gene C9orf6) was 11.84 and 11.91. For the same compound, the C9orf46 expression level (gene C9orf46) was 19.83 and 20.30, the C11orf57 expression level (gene C11orf57) was 12.07 and 11.50 and the C11orf73 expression level (gene C11orf73) was 35.63 and 36.75. For the same compound, the C12orf35 expression level (gene C12orf35) was 5.77 and 5.55, the C12orf65 expression level (gene C12orf65) was 14.51 and 14.73 and the C12orf73 expression level (gene C12orf73) was 7.32 and 7.68. The C13orf23 expression level (gene C13orf23) was 12.32 and 12.36, the C16orf72 expression level (gene C16orf72) was 10.69 and 10.57 and the C17orf80 expression level (gene C17orf80) was 10.34 and 10.65. The C18orf25 expression level (gene C18orf25) was 6.56 and 6.86, the C18orf45 expression level (gene C18orf45) was 4.86 and 5.04 and the C19orf55 expression level (gene C19orf55) was 5.99 and 6.29. The CCBL2 expression level (gene CCBL2) was 14.25 and 13.62, the CCDC25 expression level (gene CCDC25) was 31.76 and 30.83 and the CCDC92 expression level (gene CCDC92) was 12.03 and 11.64. The CCNJ expression level (gene CCNJ) was 2.94 and 2.91, the CDK4 expression level (gene CDK4) was 162.09 and 164.93 and the CDK17 expression level (gene CDK17) was 8.04 and 8.39. The CHCHD4 expression level (gene CHCHD4) was 19.84 and 19.36, the CHN2 expression level (gene CHN2) was 1.42 and 1.50 and the CLCN2 expression level (gene CLCN2) was 5.16 and 5.28. The COG1 expression level (gene COG1) was 10.28 and 10.86, the COX19 expression level (gene COX19) was 6.58 and 7.00 and the CREB1 expression level (gene CREB1) was 5.06 and 4.95. The CSGALNACT2 expression level (gene CSGALNACT2) was 10.98 and 11.46, the CSNK2A1 expression level (gene CSNK2A1) was 37.86 and 40.21 and the CSRNP2 expression level (gene CSRNP2) was 6.76 and 6.32. For the same compound, the CUEDC2 expression level (gene CUEDC2) was 42.63 and 44.50, the DCI expression level (gene DCI) was 60.10 and 62.67 and the DCLRE1A expression level (gene DCLRE1A) was 9.19 and 9.37. For the same compound, the DDB2 expression level (gene DDB2) was 110.42 and 109.59, the DDX50 expression level (gene DDX50) was 29.08 and 28.13 and the DENND4B expression level (gene DENND4B) was 17.80 and 17.11. The DET1 expression level (gene DET1) was 3.28 and 3.58, the DGKQ expression level (gene DGKQ) was 6.10 and 5.97 and the DLG4 expression level (gene DLG4) was 6.58 and 6.74. The DNAJB14 expression level (gene DNAJB14) was 5.32 and 5.63, the DNASE2 expression level (gene DNASE2) was 67.31 and 73.16 and the DYM expression level (gene DYM) was 17.92 and 17.95. For the same compound, the EDEM1 expression level (gene EDEM1) was 13.02 and 13.54, the EIF2S3 expression level (gene EIF2S3) was 260.44 and 268.10 and the EPRS expression level (gene EPRS) was 87.21 and 89.05. The ESCO1 expression level (gene ESCO1) was 5.82 and 5.63, the ESRRA expression level (gene ESRRA) was 58.60 and 54.56 and the ETV6 expression level (gene ETV6) was 3.21 and 3.17. For the same compound, the FAIM3 expression level (gene FAIM3) was 2.34 and 2.22, the FAM83G expression level (gene FAM83G) was 15.73 and 15.43 and the FAM102A expression level (gene FAM102A) was 15.44 and 14.97. The FAM107B expression level (gene FAM107B) was 26.06 and 26.60, the FAM119B expression level (gene FAM119B) was 5.44 and 5.43 and the FAM176B expression level (gene FAM176B) was 1.37 and 1.42. For the same compound, the FAM179B expression level (gene FAM179B) was 3.35 and 3.46, the FAR1 expression level (gene FAR1) was 21.55 and 22.22 and the FBXO22 expression level (gene FBXO22) was 18.71 and 19.58. The FBXW4 expression level (gene FBXW4) was 11.10 and 10.83, the FEM1C expression level (gene FEM1C) was 5.87 and 6.20 and the FEZ2 expression level (gene FEZ2) was 28.49 and 26.84. The FLCN expression level (gene FLCN) was 15.28 and 15.93, the FLYWCH1 expression level (gene FLYWCH1) was 20.36 and 21.57 and the FOSL2 expression level (gene FOSL2) was 35.73 and 35.26. For the same compound, the FOXF1 expression level (gene FOXF1) was 7.56 and 7.55, the FOXJ2 expression level (gene FOXJ2) was 9.27 and 9.86 and the FXYD5 expression level (gene FXYD5) was 112.40 and 117.32. For the same compound, the GATA5 expression level (gene GATA5) was 1.79 and 1.70, the GJD3 expression level (gene GJD3) was 4.71 and 4.56 and the GNA13 expression level (gene GNA13) was 17.15 and 16.92. The GORAB expression level (gene GORAB) was 7.75 and 7.67, the GOSR1 expression level (gene GOSR1) was 11.79 and 11.45 and the GPC5 expression level (gene GPC5) was 9.86 and 10.11. For the same compound, the GPD1L expression level (gene GPD1L) was 13.45 and 13.69, the GTF2H3 expression level (gene GTF2H3) was 21.55 and 22.21 and the HAUS3 expression level (gene HAUS3) was 7.54 and 8.11. The HAUS4 expression level (gene HAUS4) was 59.72 and 63.77, the HDHD2 expression level (gene HDHD2) was 9.17 and 8.71 and the HECTD1 expression level (gene HECTD1) was 31.75 and 32.77. For the same compound, the HIF1A expression level (gene HIF1A) was 79.76 and 77.72, the HPS3 expression level (gene HPS3) was 15.09 and 14.61 and the HRSP12 expression level (gene HRSP12) was 13.91 and 14.84. The HSD17B1 expression level (gene HSD17B1) was 4.57 and 4.64, the IFNGR1 expression level (gene IFNGR1) was 18.57 and 18.18 and the INPP1 expression level (gene INPP1) was 8.36 and 7.77. For the same compound, the IPO13 expression level (gene IPO13) was 15.99 and 16.09, the IQCB1 expression level (gene IQCB1) was 10.15 and 11.00 and the KCTD1 expression level (gene KCTD1) was 4.57 and 4.58. For the same compound, the KCTD13 expression level (gene KCTD13) was 10.32 and 11.29, the KIAA0232 expression level (gene KIAA0232) was 9.33 and 9.86 and the KIAA0649 expression level (gene KIAA0649) was 25.63 and 26.16. The KIAA0753 expression level (gene KIAA0753) was 6.64 and 6.86, the KRR1 expression level (gene KRR1) was 19.83 and 18.92 and the LARS expression level (gene LARS) was 72.55 and 69.28. For the same compound, the LGTN expression level (gene LGTN) was 39.45 and 39.33, the LRP5L expression level (gene LRP5L) was 3.26 and 3.08 and the LRPPRC expression level (gene LRPPRC) was 66.45 and 68.25.

Reference: paper PMC5267425, “Identification of small molecule modulators of HIV-1 Tat and Rev protein accumulation” (Retrovirology, 2017)
